The conditions of data set [1]: in vivo; cited from earlier work.
Data set [2] in a line: Solubility of representative compounds in various solvent systems. Type of data set: physicochemical. On the procedure:
The solubility of representative compounds of this invention in various solvent systems was determined. The solvents included ethanol, propylene glycol, SLS, Tween 80™ and combinations thereof.

For data set [3] the following is noted: prior art compound; cited from earlier work.
For data set [4], the system named is ear weight gain produced by multiple doses of TPA in mice. The experiment in a line: Chronic (multiple dose) TPA mouse ear inflammation assay, ear weight gain. Type of data set: in vivo, mouse (female CD-1). The conditions noted are these: for % Inhibition of Ear Weight Gain, Actual / % Inhibition of Ear Weight Gain, Relative to Hydrocortisone (HCV) = 100%: multiple doses of TPA; for % Inhibition of Ear Weight Gain, Relative to Hydrocortisone (HCV) = 100%: head prints 1.25 eg/ear. On the procedure: The acute skin inflammation model described in Example 1, tests the ability of a compound to prevent inflammation and thus must be applied prophylactically. Most clinical situations, however, are present as chronic inflammatory conditions. […] The effects of the compounds of the present invention and Salifluor on chronically inflamed skin was measured in the mouse ear model that utilizes multiple TPA doses over a 10-day period to produce the inflammatory response.
The assay used female CD-1 mice (7-9 weeks of age). Following a 2-week quarantine, mice were randomly assigned to test groups (5 mice/groups). TPA (10 uL of 0.01 TPA in acetone) was administered to both the inner and outer surface of each ear (2μg/ear) on day 0,2,4,7, and 9 on protocol. On Day 7,8 and 9, two applications of test article were applied to each ear 2 and 4 hours after dosing with TPA. The test articles were administered in 10 uL aliquots to both the inner and outer surface of each ear (20 μl total/dose). […] Hydrocortisone-17-valerate (HCV, 20μg/ear) was employed as a positive control. Mice were sacrificed at Day 10 on protocol and uniform punch biopsies (approximately 8 mm dia.) were taken from each ear. While on protocol, dermal irritation was scored semiquantitatively at Day 1,3,5,8, and 10.
Inhibition of TPA stimulated increased ear weight was used as an initial measure of efficacy for all of the agents tested. One biopsy from each mouse was also quick frozen and stored at -70° C. for later assay of myleoperoxidase, an enzyme associated with infiltrating PMN, or other measure of efficacy. The remaining biopsy from each mouse treated with Trifluorosal or HCV was fixed in formalin and processed for histopathologic evaluation, including measurement of cellular infiltration (PMNs, endothelial cells, macrophages) and epidermal thickness at 20 random sites along the length of the specimen.
Initially, a dose-response curve for multiple doses of TPA to produce mouse ear weight gain was generated in order to determine the concentration of TPA to be employed in the inhibition studies. […] Another major difference between the multiple TPA dose (or chronic assay for inflammation) and the single TPA dose (or acute assay for inflammation) in the mouse ear is sensitivity to Non-steroidal antiinflammatory drugs (NSAIDs) and antihistamines.

For data set [5] the following is noted: prior art compound; cited from earlier work. The source holds these as a separate data set.
Data set [6] in a line: Stability in solution by HPLC (TMF-10, 40° C.). In kind it is physicochemical. Conditions: 0.3 mg/ml in 30% ethanolic water, four weeks. On the procedure:
An analytical method to determine concentration and stability of some representative compounds of this invention in solution employing high pressure liquid chromatography (HPLC) was developed and validated. Both isocratic and gradient mobile phases of acetonitrile, water and methanol were investigated on a C-18 silica reverse solid phase column (Zorbax). Results were obtained using a 12 minute gradient of 80% to 100% methanol/water at a flow rate of 1.5 ml/minutes. Detection was carried out by measuring absorbance at 280 nm. Under these conditions TMF-10 and TMC-l0 each produced symmetrical peaks with retention times of 7.5 and 3.0 minutes, respectively. TMF-8 and TMF-12 had retention times of 4 and 9 minutes respectively. […] The lowest detectable quantity measured for all three compounds was 5.0 ng.
A 0.3 mg/ml solution of TMF-10 in 30% ethanolic water was maintained at 40° C. for several weeks. At various times samples were analyzed for decomposition employing the HPLC method described in Example 2.

A short description of data set [7]: Single dose oral tolerance in rats. In kind it is in vivo, rat (male weaning Sprague-Dawley). Conditions: single dose 2.5 or 0.75 g/kg in 5% CMC, 7 days. On the procedure: To test for tolerance of the administered compounds, male weaning Sprague-Dawley rats were fed in a single dose of 2.5 or 0.75 g/kg of TMF-12, TMF-10, TMC-10 or TPC-10 in 5% carboxymethyl cellulose (CMC) or CMC alone. […] At completion of the 7 day observation period, necropsies were performed on all animals.

[8] abbreviates: aqueous buffer, pH 10 K-buffer @ 35° C.
Setting [9] is: aqueous buffer, pH 10 Na-buffer @ 22° C.
The mark [10] stands for this setting: organic solvent or mixture, Ethanol @ 19° C.
Setting [11] is: organic solvent or mixture, Propylene Glycol @ 20° C.

As usually defined, the solubility is how much of the substance goes into solution per volume. As a reminder, the pKa is the pH at which an ionisable group is half protonated.

`CCCCCCCC(=O)c1ccc(O)c(C(=O)Nc2cccc(C(F)(F)F)c2)c1` [Salifluor, reference compound]: the “Anti-inflammatory activity in clinical trials” value in data set [1] was “have been reported to have anti-inflammatory activity in clinical trials”. In addition, the solubility in data set [2] (+1% sls) was 230 µg/mL; in data set [2] (+2% sls) it was 290 µg/mL; in data set [2] (+4% sls) it was 380 µg/mL; in data set [2] (setting [8]) it was 1.14 µg/mL; in data set [2] (setting [9]), 3.91 µg/mL; in data set [2] (setting [10]) it was 13000 µg/mL. The solubility in data set [2] (setting [11]) was determined as 550 µg/mL. In addition, the pKa in data set [3] is given as 6.1. For the same compound, in data set [4], the “% Inhibition of Ear Weight Gain, Actual” value is reported as 0%. Besides, the “% Inhibition of Ear Weight Gain, Relative to Hydrocortisone (HCV) = 100%” value in data set [4] is given as 0%. For the same compound, the “Solubility in aqueous solutions at neutral pH” value in data set [5] is reported as “relatively insoluble in aqueous solutions at neutral pH”.

Consider `CCCCCCCCCCS(=O)(=O)c1ccc(O)c(C(=O)Nc2cccc(C(F)(F)F)c2)c1` [TMF-10], for which the solubility was found to be 760 µg/mL in data set [2] (+0.5% tween 80); 920 µg/mL in data set [2] (+1% sls); 2020 µg/mL in data set [2] (+1.5% tween 80); 1350 µg/mL in data set [2] (+2% SLS + 0.5% Tween 80); 1910 µg/mL in data set [2] (+2% SLS + 1.0% Tween 80); 2870 µg/mL in data set [2] (+2% SLS + 2.0% Tween 80). Further, the solubility in data set [2] (+2% sls) is 1280 µg/mL; in data set [2] (+3.0% tween 80), 4130 µg/mL; in data set [2] (+4% sls) it was 2080 µg/mL; in data set [2] (setting [8]) it was under 0.1 µg/mL; in data set [2] (setting [9]), 1.89 µg/mL; in data set [2] (setting [10]), 44700 µg/mL. Besides, the solubility in data set [2] (setting [11]) was found to be 1700 µg/mL; in data set [2] (ph 10 na-buffer +0.5% sls, pH 10 Na-buffer @ 22° C. +0.5% SLS), 370 µg/mL. Also, the Decomposition in solution result in data set [6] was “no decomposition of TMF-10 was detected”. Also, in data set [7], the Illness or deaths result is reported as “No illness or deaths occurred”. Besides, the “Inhibition of ear weight gain” value was 69.8% in data set [4] (5.0 mg/ear (printed 'mc/ear' for Trifluorosal)) and 0.0% in data set [4] (2.5 or 1.25 mg/ear (two values printed for three doses)). Also, in data set [4] (1.25-5 mg/ear, remaining experiments), the “Activity in chronic assay (in words)” value is given as “demonstrated consistent activity”. Moreover, in data set [4], the “% Inhibition of Ear Weight Gain, Actual” value worked out at 54.7%. Besides, the “% Inhibition of Ear Weight Gain, Relative to Hydrocortisone (HCV) = 100%” value in data set [4] is 59.9%.

Values taken from patent US6117859A, “Method of relieving chronic inflammation by using 5-alkylsulfonylsalicylanilides” (The Research Foundation of State University of New York, priority 1999, dated 2000).
